In PubChem BioAssay (NCI):
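Grown in 96-well plates, cells were treated for 48 hours with each compound at five concentrations. Insufficient inhibition: endpoint recorded as highest concentration tested. TGI is the concentration that stops growth completely.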

Tests used:
Assay in all cases: NCI tumour cell line growth inhibition, 48 h
[1] = test system: SK-OV-3 ovarian
[2] = test system: T-47D breast
[3] = test system: MDA-MB-435
[4] = test system: K-562 leukemia
[5] = test system: NCI-H460 lung
[6] = test system: MOLT-4 leukemia
[7] = test system: SF-268 CNS
[8] = test system: PC-3 prostate
[9] = test system: ACHN renal
[10] = test system: UO-31 renal
[11] = test system: SF-295 CNS
[12] = test system: U251 CNS
[13] = test system: UACC-62 melanoma
[14] = test system: HOP-62 NSCLC
[15] = test system: MCF7 breast
[16] = test system: SK-MEL-2 melanoma
[17] = test system: A498 renal
[18] = test system: MDA-MB-231 breast
[19] = test system: DU-145 prostate
[20] = test system: HOP-92 NSCLC
[21] = test system: KM12 colon
[22] = test system: TK-10 renal
[23] = test system: M14 melanoma
[24] = test system: SF-539 CNS
[25] = test system: BT-549 breast
[26] = test system: SN12C renal
[27] = test system: MALME-3M melanoma
[28] = test system: RXF 393 renal
[29] = test system: HCC-2998 colon
[30] = test system: SK-MEL-5 melanoma
[31] = test system: OVCAR-8 ovarian
[32] = test system: EKVX NSCLC
[33] = test system: LOX IMVI melanoma
[34] = test system: UACC-257 melanoma
[35] = test system: HS 578T breast
[36] = test system: OVCAR-3 ovarian
[37] = test system: HL-60(TB) leukemia
[38] = test system: NCI/ADR-RES ovarian
[39] = test system: OVCAR-5 ovarian
[40] = test system: OVCAR-4 ovarian
[41] = test system: HCT-116 colon
[42] = test system: HT29 colon
[43] = test system: HCT-15 colon
[44] = test system: SW-620 colon
[45] = test system: MDA-N
[46] = test system: IGROV1 ovarian
[47] = test system: SR leukemia
[48] = test system: SK-MEL-28 melanoma
[49] = test system: 786-0 renal
[50] = test system: A549 NSCLC
[51] = test system: NCI-H23 lung
[52] = test system: COLO 205 colon
[53] = test system: RPMI-8226 leukemia
[54] = test system: NCI-H226 lung
[55] = test system: NCI-H522 lung
[56] = test system: SNB-19 CNS
[57] = test system: CCRF-CEM leukemia
[58] = test system: CAKI-1 renal
[59] = test system: SNB-75 CNS

## CC[C@H]1C=CCC[C@@]2(C[C@@H]3CC[C@@H]4[C@H](C(=O)OCCCCCCCCCCCCCCCC(=O)N(CCCN)C[C@@H](O)CCN)[C@]5(CCC[C@@H](C)O5)NC(=[N+]34)N2)O1
[1]
  TGI: 4.77 µM
[2]
  TGI: 5.56 µM
[3]
  TGI: 0.469 µM
[4]
  TGI: 0.565 µM
[5]
  TGI: 2.15 µM
[6]
  TGI: 0.524 µM
[7]
  TGI: 2.41 µM
[8]
  TGI: 1.96 µM
[9]
  TGI: > 4.73 µM
[10]
  TGI: 1.64 µM
[11]
  TGI: 3.52 µM
[12]
  TGI: 1.68 µM
[13]
  TGI: 0.239 µM
[14]
  TGI: 2.94 µM
[15]
  TGI: 1.71 µM
[16]
  TGI: 0.673 µM
[17]
  TGI: 1.74 µM
[18]
  TGI: 5.97 µM
[19]
  TGI: > 10 µM
[20]
  TGI: 1.01 µM
[21]
  TGI: 1.58 µM
[22]
  TGI: 4.52 µM
[23]
  TGI: 0.0599 µM
[24]
  TGI: 2.37 µM
[25]
  TGI: 2.61 µM
[26]
  TGI: > 5.62 µM
[27]
  TGI: 1.26 µM
[28]
  TGI: 2.38 µM
[29]
  TGI: 0.793 µM
[30]
  TGI: 0.173 µM
[31]
  TGI: 7.13 µM
[32]
  TGI: 2.49 µM
[33]
  TGI: 0.721 µM
[34]
  TGI: 0.573 µM
[35]
  TGI: 2.88 µM
[36]
  TGI: > 10 µM
[37]
  TGI: 1.36 µM
[38]
  TGI: > 10 µM
[39]
  TGI: 4.39 µM
[40]
  TGI: > 5.94 µM
[41]
  TGI: 1.16 µM
[42]
  TGI: 1.23 µM
[43]
  TGI: > 10 µM
[44]
  TGI: 3.87 µM
[45]
  TGI: 1.14 µM
[46]
  TGI: > 3.82 µM
[47]
  TGI: 0.397 µM
[48]
  TGI: 2.9 µM
[49]
  TGI: 1.04 µM
[50]
  TGI: 1.25 µM
[51]
  TGI: 2.87 µM
[52]
  TGI: 1.65 µM
[53]
  TGI: 0.755 µM
[54]
  TGI: 3.66 µM
[55]
  TGI: 0.573 µM
[56]
  TGI: 1.27 µM

## O=C1/C(=C\c2cccs2)Oc2ccccc21
[1]
  TGI: > 100 µM
[57]
  TGI: > 100 µM
[2]
  TGI: 10.8 µM
[3]
  TGI: > 100 µM
[4]
  TGI: > 100 µM
[5]
  TGI: > 100 µM
[6]
  TGI: > 100 µM
[7]
  TGI: > 100 µM
[8]
  TGI: > 100 µM
[9]
  TGI: > 100 µM
[58]
  TGI: > 100 µM
[10]
  TGI: 83.3 µM
[11]
  TGI: > 100 µM
[12]
  TGI: > 100 µM
[13]
  TGI: > 100 µM
[14]
  TGI: > 100 µM
[15]
  TGI: > 100 µM
[16]
  TGI: > 100 µM
[17]
  TGI: > 100 µM
[18]
  TGI: > 100 µM
[19]
  TGI: > 100 µM
[20]
  TGI: 89 µM
[21]
  TGI: > 100 µM
[22]
  TGI: > 100 µM
[23]
  TGI: > 100 µM
[25]
  TGI: > 100 µM
[26]
  TGI: > 100 µM
[28]
  TGI: > 100 µM
[29]
  TGI: > 100 µM
[30]
  TGI: > 100 µM
[31]
  TGI: > 100 µM
[32]
  TGI: > 100 µM
[33]
  TGI: > 100 µM
[34]
  TGI: > 100 µM
[35]
  TGI: > 100 µM
[36]
  TGI: > 100 µM
[37]
  TGI: > 100 µM
[38]
  TGI: > 100 µM
[39]
  TGI: > 100 µM
[40]
  TGI: > 100 µM
[59]
  TGI: > 100 µM
[41]
  TGI: > 100 µM
[42]
  TGI: > 100 µM
[43]
  TGI: > 100 µM
[44]
  TGI: > 100 µM
[45]
  TGI: > 100 µM
[46]
  TGI: > 100 µM
[47]
  TGI: > 100 µM
[48]
  TGI: > 100 µM
[49]
  TGI: > 100 µM
[50]
  TGI: > 100 µM
[51]
  TGI: > 100 µM
[52]
  TGI: > 100 µM
[53]
  TGI: > 100 µM
[54]
  TGI: > 100 µM
[55]
  TGI: > 100 µM
[56]
  TGI: > 100 µM
